We go through 1 compound from patent US11542304B2, “Multimeric bicyclic peptide ligands” (BicycleTx Limited, priority 2018, dated 2023).

For series [1], the target named is T1, CD137 (Homo sapiens, UniProt Q07011). Briefly: CD137 reporter cell activity washout assay. It is filed as cell-based. Details: host or cells: Jurkat cells. Particulars: 10 nM, exposure 30, 60 or 120 minutes, total 6 hours; FIG. 13. As for the experimental part: Jurkat cells engineered to overexpress CD137 and express a luciferase gene under the NF-κB promoter were purchased from Promega. The reporter cells were incubated with 10 nM of CD137 agonists for the indicated times at 37° C. in RPMI1640 media with 1% FBS. After either 30, 60, or 120 minutes, cells were washed in an excess of culture media and resuspended in 75 μL of fresh media. A no washout condition was also included. All washout conditions were performed in duplicate. Cells then continued to incubate for a total of 6 hours (an additional 5.5, 5, or 4 hours respective to exposure times). After incubation, 75 μL of Bio-Glo reagent (Promega) was added to each well and allowed to equilibrate for 10 minutes at room temperature. Luminescence was read on the Clariostar plate reader (BMG LabTech). Fold induction was calculated by dividing the luminescence signal by background wells (reporter cells with no agonist added). The percent of the maximum fold induction was calculated by dividing the fold induction of the washout time by the fold induction of the no washout condition and multiplying by 100.

Series [2] has as its target T1, CD137. Briefly: CD137 Promega reporter cell activity assay (NF-κB luciferase in Jurkat cells).
Series [3] relates to Pan T-cells (isolated from human PBMCs). Briefly: T-cell cytokine release assay. It is filed as cell-based. The note with it: anti-CD3 stimulated T cells, 48 hours; FIG. 14. As for the experimental part:
Healthy human buffy coat was purchased from the Sylvan N. Goldman Oklahoma Blood Institute and shipped fresh. Peripheral blood mononuclear cells (PBMCs) were isolated by Ficoll density gradient centrifugation. Red blood cells were lysed with ACK (Ammonium-Chloride-Potassium) lysis buffer. Pan T-cells were then isolated from total PBMCs using negative magnetic bead selection (Miltenyi MACS human Pan-T cell isolation kit). Pan T-cells were then plated on anti-CD3 coated 96-well plates (0.5 μg/mL) in culture media (RPMI1640 with 10% FBS) plus or minus compounds. Supernatant from cultures was collected after 24 and 48 hours. Cytokine [i.e., interleukin-2 (IL-2), interferon gamma (IFNγ)] release in supernatant was measured by HTRF assay (CisBio) according to the kit's instructions. HTRF assay plates were read on a Clariostar plate reader (BMG Labtech) at 665 nm and 620 nm. Data was analyzed and extrapolated to a standard curve according to the HTRF kit instruction in Prism and Excel. Cytokine release fold change was calculated by dividing the pg/mL of cytokine detected by background cytokine released (CD3 stimulation alone). Data was graphed in Prism as the mean of replicates with standard deviation error bars.

The subject of a further series is MC38 syngeneic tumors. Briefly: In vivo efficacy in MC38 syngeneic tumors in C57BL/6J B-h4-1BB humanized mice. As for the experimental part:
The MC38 murine colon carcinoma cell line was purchased from Shunran Shanghai Biological Technology Co., Ltd. The cells will be maintained in vitro as monolayer culture in Dulbecco's Modified Eagle's medium (DMEM) supplemented with 10% heat inactivated fetal calf serum, 100 U/mL penicillin and 100 μg/mL streptomycin at 37° C. in an atmosphere of 5% CO2. The tumor cells will be routinely subcultured twice weekly by trypsin-EDTA treatment. Cells growing in an exponential growth phase will be harvested and counted for tumor inoculation. 6-8 week old female C57BL/6J B-h4-1BB humanized mice were subcutaneously injected (in the flank) with MC38 tumor cells (5×10^5) with 0.1 mL PBS for tumor development. Tumor-bearing animals were randomly enrolled into six study groups when the mean tumor size reached approximately 113 mm^3 (Study 1) or 107 mm^3 (Study 2). The test and positive control articles were administrated to the tumor-bearing mice according to predetermined regimens as shown below.
Test articles were formulated in aqueous vehicle (25 mM Histidine, 10% sucrose pH=7) and administered intravenously or intraperitoneally. CD137 monoclonal antibody agonist was administered by intraperitoneal injection in 0.9% saline.
Tumor volume was measured three times a week in two dimensions using a caliper, and the volume was expressed in mm3 using the formula: V=0.5a×b2 where a and b were the long and short diameters of the tumor, respectively. Results are represented by mean and the standard deviation (Mean±SD).
In study 2, mice were sacrificed 21 days after treatment initiation and tumors were harvested for T-cell analysis by flow cytometry. Tumor were cut into small pieces and filtered through a 70 micrometer filter. Lymphocytes were isolated using Histopaque 1083 and resuspended in RPMI 1640 supplemented with 10% fetal bovine serum. Lymphocytes were stained with a cell viability dye (Zombie NIR, Biolegend, #423106) and a panel of antibodies including anti-mouse CD45 (Biolegend, #103138), anti-mouse CD3 (Biolegend, #100328), anti-mouse CD4 (Biolegend, #100438), anti-mouse CD8 (Biolegend, #100759). Stained cells were analysed by Attune N×T Flow Cytometer. T-cell results are expressed as % of CD3+ cells among CD45+ cells. CD8+ T-cell results are expressed as % of CD8+ cells among CD45+CD3+ cells. CD4+ T-cell results are expressed as % of CD4+ cells among CD45+CD3+ cells. Results are represented by mean and the standard deviation (Mean±SD) and the individual values.
Statistical analysis: Data was analyzed using 2way ANOVA or ordinary One-way ANOVA with Dunnett's test for multiple comparisons, and P<0.05 was considered to be statistically significant. Both statistical analysis and biological observations are taken into consideration. ***p<0.001, **p<0.01, *p<0.05.

T1 sequence (Q07011 24-255): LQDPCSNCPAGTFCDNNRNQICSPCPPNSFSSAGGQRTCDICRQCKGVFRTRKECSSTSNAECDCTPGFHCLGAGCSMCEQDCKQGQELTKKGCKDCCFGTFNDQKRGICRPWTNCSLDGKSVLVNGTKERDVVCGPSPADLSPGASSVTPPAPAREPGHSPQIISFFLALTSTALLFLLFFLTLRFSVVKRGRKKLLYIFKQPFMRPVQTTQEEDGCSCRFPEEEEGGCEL

As to `CCCC[C@@H]1NC(=O)[C@H](Cc2ccc(O)cc2)NC(=O)[C@@H]2CCCN2C(=O)[C@H](CC(=O)O)NC(=O)[C@H](C)NC(=O)[C@H](Cc2ccccc2)NC(=O)[C@@H]2CSCCC(=O)N3CN(CN(C3)C(=O)CCSC[C@@H](C(=O)N[C@@H](C)C(N)=O)NC1=O)C(=O)CCSC[C@H](NC(C)=O)C(=O)N[C@@H](CC(C)(C)C)C(=O)N1CCC[C@H]1C(=O)N[C@@H](CCCCNC(=O)CCc1cn(CCOCCOCCOCCOCCOCCOCCOCCOCCOCCOCCOCCOCCOCCOCCOCCOCCOCCOCCOCCOCCOCCOCCOCCNC(=O)CCOCC(COCCC(=O)NCCOCCOCCOCCOCCOCCOCCOCCOCCOCCOCCOCCOCCOCCOCCOCCOCCOCCOCCOCCOCCOCCOCCOCCn3cc(CCC(=O)NCCCC[C@@H]4NC(=O)[C@@H]5CCCN5C(=O)[C@H](CC(C)(C)C)NC(=O)[C@@H](NC(C)=O)CSCCC(=O)N5CN6CN(C5)C(=O)CCSC[C@H](NC(=O)[C@H](Cc5ccc(O)cc5)NC(=O)[C@@H]5CCCN5C(=O)[C@@H](C)NC4=O)C(=O)N[C@@H](Cc4ccccc4)C(=O)N[C@@H](C)C(=O)N[C@@H](CC(=O)O)C(=O)N4CCC[C@H]4C(=O)N[C@@H](Cc4ccc(O)cc4)C(=O)N[C@@H](CCCC)C(=O)N[C@H](C(=O)N[C@@H](C)C(N)=O)CSCCC6=O)nn3)(COCCC(=O)NCCOCCOCCOCCOCCOCCOCCOCCOCCOCCOCCOCCOCCOCCOCCOCCOCCOCCOCCOCCOCCOCCOCCOCCn3cc(CCC(=O)NCCCC[C@@H]4NC(=O)[C@@H]5CCCN5C(=O)[C@H](CC(C)(C)C)NC(=O)[C@@H](NC(C)=O)CSCCC(=O)N5CN6CN(C5)C(=O)CCSC[C@H](NC(=O)[C@H](Cc5ccc(O)cc5)NC(=O)[C@@H]5CCCN5C(=O)[C@@H](C)NC4=O)C(=O)N[C@@H](Cc4ccccc4)C(=O)N[C@@H](C)C(=O)N[C@@H](CC(=O)O)C(=O)N4CCC[C@H]4C(=O)N[C@@H](Cc4ccc(O)cc4)C(=O)N[C@@H](CCCC)C(=O)N[C@H](C(=O)N[C@@H](C)C(N)=O)CSCCC6=O)nn3)COCCC(=O)NCCOCCOCCOCCOCCOCCOCCOCCOCCOCCOCCOCCOCCOCCOCCOCCOCCOCCOCCOCCOCCOCCOCCOCCn3cc(CCC(=O)NCCCC[C@@H]4NC(=O)[C@@H]5CCCN5C(=O)[C@H](CC(C)(C)C)NC(=O)[C@@H](NC(C)=O)CSCCC(=O)N5CN6CN(C5)C(=O)CCSC[C@H](NC(=O)[C@H](Cc5ccc(O)cc5)NC(=O)[C@@H]5CCCN5C(=O)[C@@H](C)NC4=O)C(=O)N[C@@H](Cc4ccccc4)C(=O)N[C@@H](C)C(=O)N[C@@H](CC(=O)O)C(=O)N4CCC[C@H]4C(=O)N[C@@H](Cc4ccc(O)cc4)C(=O)N[C@@H](CCCC)C(=O)N[C@H](C(=O)N[C@@H](C)C(N)=O)CSCCC6=O)nn3)nn1)C(=O)N[C@H](C)C(=O)N1CCC[C@H]1C(=O)N[C@@H](Cc1ccc(O)cc1)C(=O)N2` [BCY8945], the “cell activity after washout” value at CD137 [1] is given as “maintains cell activity after washout”. For the same compound, the “Average Fold EC50 Improvement relative to BCY7845” value at CD137 [2] came out at 0.13. Also, on CD137 [2] (Average fold induction for BCY7845 = 6.3), the “Average Relative Fold Induction relative to BCY7845” value is 1.23. For the same compound, the “CD137 agonism / activation in reporter cells (in words)” value on CD137 [2] (FIGS. 1 to 3 and 15) was “activates CD137 on the surface of Jurkat reporter cells”. Besides, the “pro-inflammatory cytokine (IL-2, IFNγ) secretion by T-cells” value in series [3] is listed as “secrete pro-inflammatory cytokines”. Further, the “anti-tumour activity (tumor volume), Study 2” value with MC38 syngeneic tumors (30 mg/kg QD × 20, FIG. 8) is “elicits anti-tumour activity”. In addition, the “T-cell percentage in the tumor tissue (% CD3+ among CD45+)” value in the series on MC38 syngeneic tumors (Study 2, 21 days of treatment, compared to CD137 monoclonal antibody agonist, FIG. 9) was “elicits a range of increase in T-cell and CD8+ T-cell percentage”. For the same compound, in the series with MC38 syngeneic tumors (Study 2, 21 days of treatment, compared to CD137 monoclonal antibody agonist, FIG. 10), the “CD8+ T-cell percentage in the tumor tissue (% CD8+ among CD45+CD3+)” value is “elicits a range of increase in T-cell and CD8+ T-cell percentage”. The “CD4+ T-cell percentage in the tumor tissue (% CD4+ among CD45+CD3+)” value in the series with MC38 syngeneic tumors (Study 2, 21 days of treatment, compared to CD137 monoclonal antibody agonist, FIG. 11) is listed as “elicits a range of decease in T-cell percentage”.
